Series [1] concerns L1210 lymphoblastic leukemia. Kind of series: Mouse model of L1210 leukemia. The conditions noted are these: mouse, in vivo.
Text: C57B mice were inoculated with L1210 lymphoblastic leukemia cells at an inoculum that causes leukemia in 100% of animals.
Series [2] relates to chick embryo vitelline capillaries. The series is described as follows: Chick embryo vitelline capillary regression assay. It counts as in vivo. On the set-up: key to Vitelline capillary regression: +: Vascular reactivity; 0: No vascular reactivity; +/-: Equivocal reactivity. The method, then:
Using the chick embryo vitelline capillaries assay, compounds were tested for their ability to induce capillary regression. Each compound was applied in 0.1 ml of 15% Ficol 400 and PBS onto the embryo, and vascular regression was assessed after 60 minutes.
The 3-day chick embryo consists of an embryonic disc from which numerous vessels emerge and return, forming a "FIG. 8"-shaped structure--the embryo in the center with vascular loops extending outward over both poles. […] Following a lag period of around 15 minutes, the constriction of continuity between capillary and secondary vessels, generally on the "venous" side, was observed. Continued pulsatile blood flow progressed, resulting in a "swelling" of the blind tube, followed by a pinching off of the remaining connection and formation of an enclosed vascular sac resembling a "blood island." This process progressed until only the largest vessels remained intact.

Series [3] has as its system human melanoma. Kind of series: Time course of effect on melanoma growth; apoptosis. The format is cell-based.
The test system of series [4] is Xenopus tadpoles, stage 59-60. The series is described as follows: Xenopus tadpole assay. Particulars: in vivo.
In series [5] the test system is ELC. The series is described as follows: ELC MTT. The format is cell-based. The conditions noted are these: Table II; read-out: ELC MTT, Minimum Effective Concentration.
Series [6] deals with HM. Kind of series: HM MTT assay. The format is cell-based. The conditions noted are these: Table II; read-out: HM MTT assay, Minimum Effective Concentration. (In general: Formazan colour is commonly taken as a measure of viable cells.)
Series [7] addresses NHE3. The conditions noted are these: cited from earlier work.
The target in series [8] is NHE1. The conditions noted are these: cited from earlier work.
In series [9] the target is NHE2. The conditions noted are these: cited from earlier work.

In the case of `N.N.[Cl][Pt][Cl]` [Cisplatin, reference compound], in [1], the “Hematological profile” value is listed as “profound anemia by day 28”.

As to `CC(C)CCC[C@@H](C)[C@H]1CC[C@H]2[C@@H]3CC[C@H]4C[C@@H](NCCCNCCCCNCCCN)CC[C@]4(C)[C@H]3CC[C@]12C` [Compound 353], in [2] (1 μg applied), the Vitelline capillary regression result is given as “+/-”. The “Effect on chick embryo vessels” value in [2] (3- to 5-day chick embryo) is reported as “no effect on the chick embryo capillary bed”. In series [3], the Apoptosis entry is on record as “apoptotic cell death has been induced” and the “Time course of effect on growth of melanoma” value is listed as “most pronounced over 48 hours, with less of an effect noted within the first 12 hours of incubation”. In addition, in series [4], the “Pharmacologic similarity in tadpole assay” value is “effects like those produced by compound 1436”. Further, in series [5], the minimal effective concentration was 1.9 µg/mL. Moreover, the minimal effective concentration in series [6] turned out to be 3 µg/mL.

For orientation: Ki means the dissociation constant of the complex between target and ligand, obtained from inhibition or displacement. Take `CN(C)c1nc(N)c(C(=O)N=C(N)N)nc1Cl` [DMA, dimethylamiloride]: the Ki was 11 µM in series [7], 0.1 µM in series [8] and 0.7 µM in series [9].

Consider `CCCN(C)c1nc(N)c(C(=O)N=C(N)N)nc1Cl` [MPA, methylpropylamiloride], for which the Ki is 10 µM in series [7], 0.08 µM in [8] and 5 µM in [9].

The values above are taken from patent publication US5840936A, “Aminosterol compounds useful as inhibitors of the sodium/proton exchanger (NHE)” (priority 1995, dated 1998).
